# From US20150126573A1, “METHODS AND PHARMACEUTICAL COMPOSITIONS FOR PREVENTION OR TREATMENT OF CHRONIC OBSTRUCTIVE PULMONARY DISEASE” (INSERM (INSTITUT NATIONAL DE LA SANTE ET DE LA RECHERCHE …, priority 2012, published 2015)
# Experiments:
# fibroblasts = assay: Cellular reactive oxygen species production (DCFH-DA assay) and oxidant signalling in PGE2-exposed fibroblasts; format: cell-based, human; settings: for increase in ROS, and SA β-gal and p21 expression induced by PGE2: 24 h pre-treatment of fibroblasts
# Description: (§1) Fibroblasts were exposed to either PGE2 (0.5 to 50 ng ml^−1) or conditioned medium (CM) collected from fibroblasts incubated for 24 h. In different experiments cells were treated with inhibitors of COXs, agonists or antagonists of prostaglandin receptors EP2 and EP4, the antioxidant N-acetylcysteine (NAC), or the inhibitor of p53 transcriptional effects pifithriñ-α.
# (§2) PGE2 was quantified by using the Prostaglandin E2 monoclonal EIA kit (Bertin Pharma, Montigny le Bretonneux, France). PGE2 receptors and enzymes involved in PGE2 synthesis were quantified by RT-qPCR. Cellular reactive oxygen species production was quantified by the DCFH-DA assay (Carter W et al., J Leukoc Biol 1994; 55:253-258).
# Primary lung fibroblasts = assay: Single 24 h exposure of non-senescent lung fibroblasts to PGE2 (accelerated senescence and related inflammation); format: cell-based, human; settings: for PGE2-induced SA-β gal and p21 expression: control fibroblasts (NS-C and S-C), antagonists 10 μM; for increase in IL-6, CX3CL1, FGF2, VEGF, MMP2 and TIMP2 induced by PGE2: fibroblasts, EP2 and EP4 antagonists
# Text: Primary lung fibroblasts were isolated by the explant technique (Normand J and Karasek M A. In Vitro Cell Dev Biol Anim 1995; 31:447-455) from lung specimens obtained for lung tumor resection from 25 patients with COPD and 35 subjects without clinical, morphological or functional signs of COPD (controls) (Table 1). Controls were divided into non-smoker and smoker groups (NS-C, n=10 and S-C, n=25 respectively). Smoking status (current smokers or ex-smokers, defined by smoking cessation after more than 1 year (Lapperre T S et al., Respir Res 2007; 8:85; Savale L et al. Am J Respir Crit Care Med 2009), was considered in the analysis of the different results (Table 2). Classification of COPD severity was based on the 2003 Global initiative for chronic obstructive lung disease (GOLD) criteria (Rabe K F et al., Am J Respir Crit Care Med 2007; 176:532-555). Informed consent was obtained from all patients and the study was approved by the “Comite de Protection des Personnes Ile de France IX”.
# as §1
# (§3) Senescence was characterized by measuring cumulative population doubling levels (PDLs) (Holz O et al., Eur Respir J 2004; 24:575-579), telomere length (Savale L et al., Am J Respir Crit Care Med 2009), senescence associated β-galactosidase activity (SA β-Gal) (Dimri G P. Cancer Cell 2005; 7:505-512), and the expression of phospho (serine 15)-p53 p16, p21, and caspase 3 by western blot, immunofluorecence and RT-qPCR analysis. The level of 29 soluble factors in conditioned medium was quantified using the Luminex technology (Millipore, Molscheim, France).
# [1] = system: Non-senescent fibroblasts from S-C and COPD patients (target fibroblasts); assay: Paracrine senescence: target fibroblasts incubated 24 h with conditioned medium (CM) from senescent fibroblasts; format: cell-based, human
# Description: as §1, §3
# Non-senescent fibroblasts from S-C and COPD patients (further called target fibroblasts) were incubated 24 h with conditioned medium (CM) from cells of the respective groups obtained at non-senescent and senescent passages. […] Both S-C and COPD CM obtained at senescent passage increased the percentage SA-β gal, phospho (serine 15)-p53, p21, and p16 protein expression, as well as IL-6, IL-8, MCP-1 and FGF-2 mRNA expression in target cells.
# [2] = system: lung mRNA expression of senescence markers and cytokines; assay: Intratracheal instillation of PGE2 in mice, lung mRNA expression of senescence markers and cytokines; format: in vivo
# Description: Male 8-week-old mice of C57BL/6 background and p53−/− animals (kindly provided by Tyler Jacks, MIT, Cambridge) were intratracheally instilled with either PGE2 (1 ng·ml^−1) or vehicle (DMSO 1/10000). Instilled volume was 50 μl. Twenty-four and 48 h after instillation mice were sacrificed and analysis of lung mRNA expression of senescence markers and cytokines were performed. Studies were conducted in compliance with INSERM guidelines regarding the fair treatment of animals.
# PGE2 = PGE2 quantification in fibroblast culture/conditioned medium (Prostaglandin E2 monoclonal EIA kit); format: cell-based, human; settings: for reduction of the levels of PGE2 in CM: treatment of fibroblasts with COX inhibitors
# Description: as §1, §2
# S-C and COPD fibroblasts = assay: Replicative senescence of S-C and COPD fibroblasts during successive passages (repeated PGE2 exposure or COX inhibitors); format: cell-based, human
# Description: as §1, §3
# Finally, the inventors investigated if endogenous PGE2 was involved in replicative senescence.
# human dermal fibroblasts = settings: Yang H H et al., Biogerontology 2011; cited from earlier work
# [3] = pre-treatment of target fibroblasts
# [4] = COPD fibroblasts, both antagonists (EP2 + EP4) used simultaneously, versus one antagonist
# [5] = COPD fibroblasts, one antagonist alone (10 μM), PGE2 10 ng·ml−1
# [6] = wild type mice, single intra-tracheal instillation
# [7] = repeated exposures to PGE2 at 1 ng·ml−1, passage 3 to 9
# [8] = repeated exposures to PGE2 at 1 ng·ml−1, passage 3 to 9, S-C and COPD fibroblasts, greater in COPD
compound,measurement,setting,value
CC(=O)N[C@@H](CS)C(=O)O [N-acetyl-cysteine],"increase in ROS, and SA β-gal and p21 expression induced by PGE2",fibroblasts,significantly reduced
Cc1ccc(C(=O)Cn2c3c(sc2=N)CCCC3)cc1 [pifithrin-α],PGE2-induced SA β-gal and p21 expression,Primary lung fibroblasts; COPD and control fibroblasts,completely prevented
same,"increase in IL6, CX3CL1, MMP-2 and TIMP-2 levels induced by PGE2",Primary lung fibroblasts; control and COPD fibroblasts,completely prevented
same,increase in p16 induced by PGE2,Primary lung fibroblasts; control and COPD fibroblasts,without modification
same,increase in FGF-2 mRNA expression induced by CM,[1]; [3],not modified
same,"increase in IL-6, IL-8 and MCP-1 mRNA expression induced by CM",[1]; [3],suppressed
same,increase in SA β-gal positive cells and induction of p21 protein by S-C and COPD senescent CM,[1]; [3],suppressed
CC(C)Oc1ccc2c(=O)c3cc(C(=O)O)ccc3oc2c1 [AH6809],PGE2-induced SA β-gal and p21 expression,Primary lung fibroblasts; [4],small but significant higher effect
same,PGE2-induced SA β-gal and p21 expression,Primary lung fibroblasts; [5],significantly reduced
same,PGE2-induced SA-β gal and p21 expression,Primary lung fibroblasts; PGE2 10 ng·ml−1,only the simultaneous application of both antagonists decreased
same,"increase in IL-6, CX3CL1, FGF2, VEGF, MMP2 and TIMP2 induced by PGE2",Primary lung fibroblasts,both antagonists were needed to suppress
"CCCCC[C@H](O)/C=C/[C@H]1[C@H](O)CC(=O)[C@@H]1C/C=C\CCCC(=O)O [PGE2, prostaglandin E2]",cleaved caspase-3 (and phosphatidyl serine residues),Primary lung fibroblasts; fibroblasts of the three groups of patients after PGE2,absence
same,"percentage of cells expressing SA β-gal, p21 and p16 protein","Primary lung fibroblasts; non-senescent NS-C, S-C and COPD fibroblasts, 24 h incubation with PGE2 (0.5 to 50 ng ml−1), higher in COPD",dose-response increase
same,"levels of IL-6, CX3CL1, VEGF, FGF2, MMP-2 and TIMP-2 in cell culture supernatant","Primary lung fibroblasts; non-senescent fibroblasts, 24 h incubation with PGE2, higher in COPD",increase
same,COX2 mRNA levels,"[2]; mice, at 48 h",increased
same,induction of p21 and inflammatory mediators,[2]; p53−/− mice,not observed
same,p16 expression in lung,[2]; [6],no change
same,"pulmonary expression of inflammatory mediators (IL-6, CX3CL1, FGF2, VEGF, MMP2)",[2]; [6],induced
same,pulmonary expression of p53 and p21,"[2]; wild type mice, single intra-tracheal instillation, at 24 h and 48 h respectively",induced
same,activation of the DNA damage-activated transcription factor ATM,"fibroblasts; PGE2-exposed COPD cells, single exposure",No activation
same,concentration of intracellular ROS and expression of the oxidant-sensitive protein HO-1,fibroblasts; fibroblasts incubated with PGE2,increased in a dose-dependent manner only in fibroblasts from COPD patients
same,synthesis of endogenous PGE2,PGE2; fibroblasts exposed to exogenous PGE2,induced
same,expression of phosphorylated-ATM,"S-C and COPD fibroblasts; COPD fibroblasts, repeated exposure to PGE2",enhanced
same,expression of MCP3,S-C and COPD fibroblasts; [7],not modified
same,reduction in telomeres length,S-C and COPD fibroblasts; [7],did not modify
same,"induction of SA-β gal, p21, p16, COX2 and HO-1 expression, and levels of IL-6, IL-8, GRO, VEGF and CX3CL",S-C and COPD fibroblasts; [8],enhanced
same,senescence-associated cumulative PDL,S-C and COPD fibroblasts; [8],further reduced
same,concentration from which the effect of PGE2 (aggravated replicative senescence) was observed,human dermal fibroblasts,≥ 5 µM
Cc1ccc(-c2cc(C(F)(F)F)nn2-c2ccc(S(N)(=O)=O)cc2)cc1 [celecoxib],reduction of the levels of PGE2 in CM,PGE2,60%
COc1ccc2c(c1)c(CC(=O)O)c(C)n2C(=O)c1ccc(Cl)cc1 [indomethacin],"increase in ROS, and SA β-gal and p21 expression induced by PGE2",fibroblasts,significantly reduced
same,reduction of the levels of PGE2 in CM,PGE2,60%
same,percentage of SA β-gal positive cells and p21 protein expression,[1]; target cells incubated with CM from fibroblasts treated with COX inhibitor,parallel significant reduction
O=C1CC[C@H](/C=C/[C@@H](O)Cc2ccccc2)N1CCCCCCc1nn[nH]n1 [CAY10598],"SA β-gal and p21 expression (agonists, no PGE2)","Primary lung fibroblasts; COPD and control fibroblasts, both agonists (EP2 + EP4) used simultaneously, versus one agonist",small but significant higher effect
same,"SA β-gal and p21 expression (agonist alone, no PGE2)","Primary lung fibroblasts; COPD and control fibroblasts, one agonist",mimicked PGE2 effects
CCOc1c2c(c(OCC)c3ccccc13)C(=O)N(c1ccc(CC(=O)NS(=O)(=O)c3ccccc3)cc1)C2 [GW627368X],PGE2-induced SA β-gal and p21 expression,Primary lung fibroblasts; [4],small but significant higher effect
same,PGE2-induced SA β-gal and p21 expression,Primary lung fibroblasts; [5],significantly reduced
same,PGE2-induced SA-β gal and p21 expression,Primary lung fibroblasts; PGE2 10 ng·ml−1,only the simultaneous application of both antagonists decreased
same,"increase in IL-6, CX3CL1, FGF2, VEGF, MMP2 and TIMP2 induced by PGE2",Primary lung fibroblasts,both antagonists were needed to suppress
